Publication PMC8453635, “Piperidine Azasugars Bearing Lipophilic Chains: Stereoselective Synthesis and Biological Activity as Inhibitors of Glucocerebrosidase (GCase)” (The Journal of Organic Chemistry, 2021)

Legend:
Type in all cases: biochemical
α-glucosidase = biological target: T1, α-glucosidase (Homo sapiens, UniProt P10253); experiment: Human lysosomal glycosidase selectivity screening (lymphocyte homogenate); conditions: 1 mM, read-out: percentage of inhibition, α-Glu
T1 construct: α-glucosidase from lymphocytes isolated from healthy donors; from tissue; host or cells: lymphocytes from healthy donors' blood, sonicated homogenate
Description: In order to avoid undesired inhibitory side effects of a potential new drug, it has to be selective for a given target. The selectivity of the newly synthesized compounds 14, 15, and 33·HCl toward GCase was then investigated, evaluating their inhibition at 1 mM concentration toward six other lysosomal glycosidases (namely, α-and β-mannosidases, α- and β-galactosidases, α-fucosidase, and α-glucosidase) in cell homogenates (leucocytes or lymphocytes) isolated from healthy donors. […] Indeed, only moderate inhibitory activity (ca. 50%) was found toward human β-galactosidase for both piperidines 14 and 15, while negligible inhibitory activity was detected in all other cases. […]
α-Mannosidase activity was measured in a flat-bottomed 96-well plate. […] The reaction was stopped by addition of sodium carbonate (200 μL; 0.5M, pH 10.7) containing Triton X -100 (0.0025 %), and the fluorescence 4 -methylumbelliferone release d by α-mannosidase activity was measured in SpectraMax M2 microplate reader ( λex=365 nm, λem=435 nm; Molecular Devices). […]
β-Mannosidase activity was measured in a flat -bottomed 96 -well plate. […] The reaction was stopped by addition of sodium carbonate (200 μL; 0.5M, pH 10.7) containing Triton X -100 (0.0025 %), and the fluorescence of 4 -methylumbelliferone released by β-mannosidase activity was meas ured in SpectraMax M2 microplate reader ( λex=365 nm, λem=435 nm; […]

[1] = biological target: T2, α-mannosidase EC 3.2.1.24 (Canavalia ensiformis, UniProt C0HJB3); experiment: Commercial glycosidase screening; conditions: Jack beans, read-out: % Inhibition at 0.1 mM
T2 construct: purchased
T2 sequence (C0HJB3 whole entry): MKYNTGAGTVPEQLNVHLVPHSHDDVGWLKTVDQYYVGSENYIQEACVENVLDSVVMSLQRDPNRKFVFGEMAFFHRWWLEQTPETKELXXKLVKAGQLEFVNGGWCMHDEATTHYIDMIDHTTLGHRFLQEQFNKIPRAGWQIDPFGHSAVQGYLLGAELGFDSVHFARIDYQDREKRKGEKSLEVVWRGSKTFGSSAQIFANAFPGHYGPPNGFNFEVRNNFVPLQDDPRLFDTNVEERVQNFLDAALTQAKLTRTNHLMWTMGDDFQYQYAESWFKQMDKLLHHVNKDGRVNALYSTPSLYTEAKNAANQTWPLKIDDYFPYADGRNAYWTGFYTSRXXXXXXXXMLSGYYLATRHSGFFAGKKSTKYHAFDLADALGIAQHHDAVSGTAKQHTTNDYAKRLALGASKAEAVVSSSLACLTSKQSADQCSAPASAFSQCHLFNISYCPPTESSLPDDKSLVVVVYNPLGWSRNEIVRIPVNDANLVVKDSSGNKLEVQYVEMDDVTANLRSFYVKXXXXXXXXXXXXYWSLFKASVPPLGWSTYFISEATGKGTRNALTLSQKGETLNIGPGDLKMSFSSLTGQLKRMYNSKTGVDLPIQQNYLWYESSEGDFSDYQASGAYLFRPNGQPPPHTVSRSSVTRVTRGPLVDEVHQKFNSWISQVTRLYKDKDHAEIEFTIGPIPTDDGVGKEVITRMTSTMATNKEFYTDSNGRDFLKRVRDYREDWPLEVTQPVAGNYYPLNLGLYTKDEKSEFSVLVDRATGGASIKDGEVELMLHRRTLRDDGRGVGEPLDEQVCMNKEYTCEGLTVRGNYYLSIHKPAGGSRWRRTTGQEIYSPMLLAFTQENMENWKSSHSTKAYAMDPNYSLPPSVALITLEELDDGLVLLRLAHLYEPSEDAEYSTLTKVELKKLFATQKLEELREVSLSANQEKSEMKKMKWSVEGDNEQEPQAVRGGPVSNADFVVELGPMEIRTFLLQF
Description: (§1) Preliminary biological evaluation of compounds 14 and 15 (at 100 μM inhibitor concentration) was performed toward a panel of 12 commercial glycosidases (α-L-fucosidase EC 3.2.1.51 from Homo sapiens, α-galactosidase EC 3.2.1.22 from coffee beans, β-galactosidases EC 3.2.1.23 from Escherichia coli and Aspergillus oryzae, α-glucosidases EC 3.2.1.20 from yeast and rice, amyloglucosidase EC 3.2.1.3 from Aspergillus niger, β-glucosidase EC 3.2.1.21 from almonds, α-mannosidase EC 3.2.1.24 from Jack beans, β-mannosidase EC 3.2.1.25 from snail, and β-N-acetylglucosaminidases EC 3.2.1.52 from Jack beans and bovine kidney).
(§2) The percentage (%) of inhibition for compounds 14 and 15 toward the corresponding glycosidase was determined by quadruplicate in the presence of 100 μM of the inhibitor on the well. Each enzymatic assay (final volume 0.12 mL) contains 0.01–0.5 units/mL of the enzyme (with previous calibration) and 4.2 mM aqueous solution of the appropriate p-nitrophenyl glycopyranoside (substrate) buffered to the optimal pH of the enzyme. Enzyme and inhibitor were pre-incubated for 5 min at rt, and the reaction started by addition of the substrate. After 20 min of incubation at 37 °C, the reaction was stopped by addition of 0.1 mL of sodium borate solution (pH 9.8). The p-nitrophenolate formed was measured by visible absorption spectroscopy at 405 nm (Asys Expert 96 spectrophotometer). Under these conditions, the p-nitrophenolate released led to optical densities linear with both reaction time and concentration of the enzyme.
(§3) Biological screening towards commercial glycosidases
(§4) α-L-fucosidase EC 3.2.1.51
(§5) α-galactosidase EC 3.2.1.22 […]
(§6) β-glucosidase EC 3.2.1.21
(§7) α-mannosidase EC 3.2.1.24
(§8) β-mannosidase EC 3.2.1.25 […]
(§9) “-“: no inhibition (or less than 15%) detected.

[2] = biological target: T3, α-galactosidase EC 3.2.1.22 (Coffea arabica, UniProt Q42656); experiment: Commercial glycosidase screening; conditions: coffee beans, read-out: % Inhibition at 0.1 mM
T3 construct: purchased
T3 sequence (Q42656 16-378): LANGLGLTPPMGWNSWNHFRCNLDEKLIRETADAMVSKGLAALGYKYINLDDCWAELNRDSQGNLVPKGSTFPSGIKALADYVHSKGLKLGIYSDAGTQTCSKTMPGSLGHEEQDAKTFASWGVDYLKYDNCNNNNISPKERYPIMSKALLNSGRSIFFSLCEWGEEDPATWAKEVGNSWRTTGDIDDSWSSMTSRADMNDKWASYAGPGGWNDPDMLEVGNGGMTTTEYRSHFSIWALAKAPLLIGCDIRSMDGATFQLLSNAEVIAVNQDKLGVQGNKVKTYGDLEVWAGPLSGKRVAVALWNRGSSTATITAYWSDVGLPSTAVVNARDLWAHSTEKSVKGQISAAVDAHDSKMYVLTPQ
Description: as §1, §2, §3, §4, §5, §6, §7, §8, §9

[3] = tested on: β-glucosidase EC 3.2.1.21; experiment: Commercial glycosidase screening; conditions: almonds
Description: as §1, §2, §3, §4, §5, §6, §7, §8, §9

[4] = tested on: α-L-fucosidase EC 3.2.1.51; experiment: Commercial glycosidase screening; conditions: Homo sapiens
Description: as §1, §2, §3, §4, §5, §6, §7, §8, §9

[5] = biological target: T4, amyloglucosidase EC 3.2.1.3 (Aspergillus niger, UniProt P69328); experiment: Commercial glycosidase screening; conditions: read-out: % Inhibition at 0.1 mM
T4 construct: purchased
T4 sequence (P69328 25-640): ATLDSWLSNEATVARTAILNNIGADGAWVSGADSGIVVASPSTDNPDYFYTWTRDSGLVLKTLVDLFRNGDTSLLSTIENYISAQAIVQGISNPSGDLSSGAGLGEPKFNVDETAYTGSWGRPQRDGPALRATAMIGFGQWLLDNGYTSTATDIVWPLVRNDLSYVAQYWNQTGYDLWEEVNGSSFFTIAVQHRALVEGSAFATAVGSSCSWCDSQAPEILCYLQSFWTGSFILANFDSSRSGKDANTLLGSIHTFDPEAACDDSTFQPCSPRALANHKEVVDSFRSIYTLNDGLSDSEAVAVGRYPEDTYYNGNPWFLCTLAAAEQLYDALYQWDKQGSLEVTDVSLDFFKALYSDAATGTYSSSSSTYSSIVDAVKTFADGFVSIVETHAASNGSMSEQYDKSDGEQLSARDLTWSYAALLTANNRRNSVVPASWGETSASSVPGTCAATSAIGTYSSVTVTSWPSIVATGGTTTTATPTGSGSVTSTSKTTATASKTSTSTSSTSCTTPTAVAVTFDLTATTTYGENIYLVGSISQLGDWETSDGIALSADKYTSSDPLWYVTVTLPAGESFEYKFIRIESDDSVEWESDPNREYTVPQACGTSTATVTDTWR
Description: as §1, §2, §3, §4, §5, §6, §7, §8, §9

[6] = tested on: β-mannosidase EC 3.2.1.25; experiment: Commercial glycosidase screening; conditions: snail
Description: as §1, §2, §3, §4, §5, §6, §7, §8, §9

Row | Compound | inhibition at 1000 µM (α-glucosidase) [%] | inhibition at 100 µM [1] [%] | inhibition at 100 µM [2] [%] | % Inhibition at 0.1 mM [3] | % Inhibition at 0.1 mM [4] | inhibition at 100 µM [5] [%] | % Inhibition at 0.1 mM [6]
1 | CCCCCCCC[C@H]1[C@@H](O)[C@H](O)[C@H](O)CN1CCCCCCCC [compound 14, (2S,3R,4R,5R)-1,2-Dioctylpiperidine-3,4,5-triol] | 18 | < 15 | < 15 | 30% | - (“-“: no inhibition (or less than 15%) detected.) | < 15 | - (“-“: no inhibition (or less than 15%) detected.)
2 | CCCCCCCC[C@@H]1[C@@H](O)[C@H](O)[C@H](O)CN1CCCCCCCC [compound 15, (2R,3R,4R,5R)-1,2-Dioctylpiperidine-3,4,5-triol] |  | < 15 | < 15 | - (“-“: no inhibition (or less than 15%) detected.) | - (“-“: no inhibition (or less than 15%) detected.) | < 15 | - (“-“: no inhibition (or less than 15%) detected.)
